Measurements as given in ChEMBL document CHEMBL4184337, “Discovery of Orally Bioavailable, Quinoline-Based Aldehyde Dehydrogenase 1A1 (ALDH1A1) Inhibitors with Potent Cellular Activity” (J Med Chem, 2018).

Experiments:
[1] = Solubility of compound; format: physicochemical
[2] = Apparent permeability across apical to basolateral side in human Caco2 cells; format: ADME, cell-based; conditions: caco-2
Rattus norvegicus [3] = test: Cmax in Sprague-Dawley rat at 10 mg/kg, po measured at 5 mins by LC-MS/MS method; format: ADME, organism-based; parameters: dose 10 mg/kg, route oral; conditions: in vivo
Mus musculus [4] = test: Cmax in CD1 mouse at 10 mg/kg, po measured at 5 mins by LC-MS/MS method; format: ADME, organism-based; parameters: dose 10 mg/kg, route oral; conditions: in vivo
Mus musculus [5] = test: Oral bioavailability in CD1 mouse at 10 mg/kg by LC-MS/MS method; format: ADME, organism-based; conditions: in vivo
[6] = Volume of distribution at steady state in Sprague-Dawley rat at 2 mg/kg, iv by LC-MS/MS method; format: ADME, organism-based; conditions: in vivo, read-out: Vdss
[7] = Permeability of the compound by PAMPA; format: ADME
Rattus norvegicus [8] = test: Cmax in Sprague-Dawley rat at 2 mg/kg, iv measured at 5 mins by LC-MS/MS method; format: ADME, organism-based; parameters: dose 2 mg/kg, route intravenous; conditions: in vivo
[9] = AUC (0 to infinity) in Sprague-Dawley rat at 10 mg/kg, po by LC-MS/MS method; format: ADME, organism-based; parameters: dose 10 mg/kg, route oral, time infinity; conditions: in vivo
Mus musculus [10] = test: Cmax in CD1 mouse at 2 mg/kg, iv measured at 5 mins by LC-MS/MS method; format: ADME, organism-based; parameters: dose 2 mg/kg, route intravenous; conditions: in vivo
[11] = AUC (0 to infinity) in Sprague-Dawley rat at 2 mg/kg, iv by LC-MS/MS method; format: ADME, organism-based; parameters: dose 2 mg/kg, time infinity, route intravenous; conditions: in vivo
[12] = Apparent permeability across basolateral to apical side in human Caco2 cells; format: ADME, cell-based; conditions: caco-2
Rattus norvegicus [13] = test: Oral bioavailability in Sprague-Dawley rat at 10 mg/kg by LC-MS/MS method; format: ADME, organism-based; conditions: in vivo

| solubility [1] | Cmax (Rattus norvegicus [3]) | Vd [6] | Cmax (Rattus norvegicus [8]) | AUC(0-inf) [9] | AUC(0-inf) [11] | F (Rattus norvegicus [13]) | Compound | Papp [2] | Cmax (Mus musculus [4]) | F (Mus musculus [5]) | permeability [7] | Cmax (Mus musculus [10]) | Papp [12] |
| --- | --- | --- | --- | --- | --- | --- | --- | --- | --- | --- | --- | --- | --- |
| < 1 µg/mL | – | – | – | – | – | – | COc1ccc(S(=O)(=O)c2cnc3ccc(OC)cc3c2N2CCC3(CC2)OCCO3)cc1 | – | – | – | – | – | – |
| – | 1980 ng/mL | 0.7 L/kg | 2587 ng/mL | 7540 ng·h/mL | 3160 ng·h/mL | 48% | CS(=O)(=O)N1CCN(C(=O)c2cnc3ccc(F)cc3c2-c2ccc(C3(C#N)CC3)cc2)CC1 | 5.76 ×10⁻⁶ cm/s | 1530 ng/mL | 76% | 388 ×10⁻⁶ cm/s | 1997 ng/mL | 22.4 ×10⁻⁶ cm/s |
| – | – | – | – | – | – | – | CS(=O)(=O)N1CCN(C(=O)c2cnc3ccc(F)cc3c2N2CCC(C#N)(c3ccccc3)CC2)CC1 | 11.4 ×10⁻⁶ cm/s | 1234 ng/mL | 44% | 725 ×10⁻⁶ cm/s | 2350 ng/mL | 17.2 ×10⁻⁶ cm/s |
